Source: patent US4868291A, “4'-deshydroxyepipodophyllotoxin glucosides: synthesis and use” (Bristol-Myers Company, priority 1987, dated 1989)
Converted amounts (≈) assume the structure as drawn. Read-outs that look alike come from different tables or passages of the source.

Assays:
[1] = test system: variety of cancers including small cell lung cancer, non-lymphocytic leukemia and non-seminomatous testicular cancer; details: clinical, background statement; cited from earlier work
[2] = Haim et al. 1986; cited from earlier work
HCT/VP35 = assay: In vitro cytotoxicity assay, HCT/VP35 human colon, etoposide resistant; format: cell-based; details: dissolved in DMSO, two unlabelled lines of values
Experimental: (§1) The in vitro cytotoxicity assay involves growing various mammalian tumor cells, including human tumor cells, on Microtiter plates employing established tissue culture methods. The concentration of each compound required to inhibit cell growth by 50% (IC50) is then determined by a four-fold serial dilution technique. The validity of the method has been supported by a report published in the "Proceedings of the American Association for Cancer Research", 1984, 25: 1891 (Abst. No. 328). Tumor cells of the following type were employed: B16-F10 murine melanoma, Moser human colon, SW900 human lung resistant to teniposide (VM) and etoposide (VP) and three human colon tumor cell lines, i.e. HCT-116, HCT-VM and HCT-VP, the latter two being resistant to teniposide (VM) and etoposide (VP), respectively. IC50 values less than […] are a positive indicator of antitumor activity. Table I presents IC50 values against the above-mentioned cell lines.

B16-F10 = assay: In vitro cytotoxicity assay, B16-F10 murine melanoma; format: cell-based; details: dissolved in DMSO, two unlabelled lines of values
Experimental: as §1

P388 murine leukemia = assay: Antitumor activity against murine P388 leukemia in CDF1 mice; format: in vivo
Experimental: Female CDF1 mice were implanted intraperitoneally with a tumor inoculum of 10^6 ascites cells of P388 murine leukemia and treated with various doses of the compound of Example 4; four mice were used for each dose level and ten were used as saline-treated control. The compound was administered by intraperitoneal injection in two injections on day 1 and day 5. Antitumor activity was expressed as %T/C which is the ratio of the median survival time (MST) of the drug-treated group to the MST of the saline-treated control group. A compound showing a %T/C of 125 or greater is generally considered to have significant antitumor activity in the P388 test. The experiment lasted 31 days at the end of which time the number of survivors was noted.

MOSER = assay: In vitro cytotoxicity assay, Moser human colon; format: cell-based; details: dissolved in DMSO, two unlabelled lines of values
Experimental: as §1

SMILES | activity in the treatment of cancers [1] | metabolites formed on peroxidative activation [2] | IC50 (HCT/VP35; HCT/VP35, resistant to etoposide) | IC50 (HCT/VP35; Homo sapiens, HCT/VP35, HCT/VP35, resistant to etoposide, read-out: IC50) | IC50 (B16-F10; B16-F10) | IC50 (B16-F10; Mus musculus, B16-F10, B16-F10, read-out: IC50) | MST (median survival time) (P388 murine leukemia; 150 mg/kg/inj., i.p., days 1 and 5, dose with maximum effect, saline control 10.0 days) | Day 5 No. mice alive/total (P388 murine leukemia; 150 mg/kg/inj., i.p., day 5) | mice alive at day 31 (P388 murine leukemia; day 31, test or control group) | % T/C (MST treated / MST control) (P388 murine leukemia; maximum %T/C, at 150 mg/kg/inj., i.p., days 1 and 5, 125 or greater is significant) | IC50 (MOSER; Homo sapiens, read-out: IC50) | IC50 (MOSER)
COc1cc([C@@H]2c3cc4c(cc3[C@@H](O[C@@H]3O[C@@H]5CO[C@@H](c6cccs6)O[C@H]5[C@H](O)[C@H]3O)[C@H]3COC(=O)[C@H]23)OCO4)cc(OC)c1O [Teniposide] | active in the treatment of a variety of cancers | formation of two metabolites, one of which has been identified as the corresponding orthoquinone III | – | – | – | – | – | – | – | – | – | –
COc1cc([C@@H]2c3cc4c(cc3[C@@H](O[C@@H]3O[C@@H]5CO[C@@H](C)O[C@H]5[C@H](O)[C@H]3O)[C@H]3COC(=O)[C@H]23)OCO4)cc(OC)c1O [Etoposide] | active in the treatment of a variety of cancers | formation of two metabolites, one of which has been identified as the corresponding orthoquinone III | – | – | – | – | – | – | – | – | – | –
COc1cc(OC)cc([C@@H]2c3cc4c(cc3[C@@H](O[C@@H]3O[C@@H]5CO[C@@H](C)O[C@H]5[C@H](O)[C@H]3O)[C@H]3COC(=O)[C@H]23)OCO4)c1 [Example 4, 4'-Desmethoxyetoposide] | – | – | 3.5 µg/mL (≈ 6.11 µM) | 3.3 µg/mL (≈ 5.76 µM) | 27 µg/mL (≈ 47.2 µM) | 23 µg/mL (≈ 40.2 µM) | 17.5 days | 4/4 | no mice were alive | 175% | 60 µg/mL (≈ 105 µM) | 31 µg/mL (≈ 54.1 µM)
